One test concerns S. aureus 77. Put plainly: In vitro antibacterial activity (MIC), broth dilution micromethod. Type of test: cell-based, Staphylococcus aureus. The conditions noted are these: erythromycin-resistant strain; MHB, 37° C., 18 hours. Here is the method: (§1) The minimum inhibitory concentrations (MIC), with respect to Gram-positive bacteria (erythromycin-sensitive and -resistant strains) and Gram-negative bacteria, were determined by means of the broth-scaler dilution micromethod in twin series [National Committee for Clinical Laboratory Standards, 1990; Methods for dilution antimicrobial susceptibility tests for bacteria that grow aerobically; Approved standards M7-A2-NCCLS, Villanova, Pa.], using Mueller Hinton Broth (MHB) as culture medium.
(§2) Azithromycin [The Merck Index, XIIth Edition, No. 946) was used as reference macrolide.
(§3) The MIC values, expressed in μg/ml, were determined after incubating the microplates at 37° C. for 18 hours, by evaluating the lowest concentration of antibiotic capable of inhibiting bacterial growth.
On the technique in general: Dilution methods test growth across graded concentrations, often in twofold steps.

A further test deals with S. aureus 929. The test is described as above. The note with it: erythromycin-resistant strain; MHB, 37° C., 18 hours. It counts as cell-based, Staphylococcus aureus. Here is the method: as §1, §2, §3
The subject of another test is S. coag. Neg. 845. Described as above. It counts as cell-based, Staphylococcus spp. The note with it: erythromycin-resistant strain; MHB, 37° C., 18 hours. The protocol:
as §1, §2, §3

A further test has as its system S. epidermis 60. The test is described as above. It counts as cell-based, Staphylococcus spp. The conditions noted are these: erythromycin-resistant (inducible) strain; MHB, 37° C., 18 hours. Here is the method:
as §1, §2, §3

The next test relates to S. specie 916. The test is described as above. Type of test: cell-based, Staphylococcus spp. The note with it: erythromycin-resistant (inducible) strain; MHB, 37° C., 18 hours. Here is the method:
as §1, §2, §3

A further test relates to S. haemolyticus 161. Described as above. Type of test: cell-based, Staphylococcus haemolyticus. The note with it: erythromycin-resistant strain; MHB, 37° C., 18 hours. Here is the method: as §1, §2, §3
The subject of test [1] is Streptococcus pyogenes C203. Put plainly: In vivo therapeutic efficacy in experimental pulmonary infection in mice. The conditions noted are these: CD1 mice, death observed for 7 days, probit analysis; for PD50 1 hour after infection: single oral dose 1 hour after intranasal infection; for PD50 24 hours before infection: single oral dose 24 hours before intranasal infection. Here is the method: The therapeutic efficacy, expressed as the 50% protective dose (PD50), of the compounds of formula (I) was evaluated in the experimental pulmonary infection induced in mice by Streptococcus pyogenes C203.
Charles River albino mice (strain CD1) weighing 23-25 g were used, kept in groups of 6 to a cage and fed normally with a standard diet and water ad libitum.
A suspension of Streptococcus pyogenes C203 (equal to about 10^8 CFU) in tryptone broth (0.05 ml) was administered intranasally to each mouse, anaesthetized with a mixture of ethyl ether and chloroform.
The compounds of formula I and the clarithromycin reference compounds were administered orally in a single dose, as a 0.5% suspension Methocel® 1 hour after the infection and 24 hours before the infection.
Observation of the death of the mice was continued for 7 days after the infection.
The PD50, expressed as μmol/kg, was calculated by means of probit analysis.

Another test relates to S. pneumoniae 1035. Put plainly: In vitro antibacterial activity (MIC), broth dilution micromethod. It counts as cell-based, Streptococcus pneumoniae. The conditions noted are these: erythromycin-resistant strain; MHB with 5% horse serum, 37° C., 18 hours. Here is the method: as §1
(§4) In the case of Streptococcus pneumoniae, the medium was supplemented with 5% horse serum.
as §2, §3

A further test has as its system S. pneumoniae 1047. The test is described as above. Type of test: cell-based, Streptococcus pneumoniae. The conditions noted are these: erythromycin-resistant strain; MHB with 5% horse serum, 37° C., 18 hours. The protocol: as §1, §4, §2, §3
The test system of a further test is S. pneumoniae 1051. The test is described as above. The conditions noted are these: erythromycin-resistant strain; MHB with 5% horse serum, 37° C., 18 hours. Type of test: cell-based, Streptococcus pneumoniae. Here is the method:
as §1, §4, §2, §3

In brackets after ≈: the same amount, converted by molar mass.

Turning to `CC[C@H]1OC(=O)[C@H](C)[C@@H](O[C@H]2C[C@@](C)(OC)[C@@H](O)[C@H](C)O2)[C@H](C)[C@@H](O[C@@H]2O[C@H](C)C[C@H](N(C)C)[C@H]2O)[C@](C)(O)C[C@@H](C)/C(=N\OCCNCCCCCCNCc2nc(-c3nccs3)cs2)[C@H](C)[C@@H](O)[C@]1(C)O` [Compound 1, erythromycin A (E)-9-[O-[2-[6-[([2,4′]bithiazole-2′-ylmethyl)amino]hexylamino]ethyl]oxime]], the “MIC S. aureus 77” value in the test with S. aureus 77 was greater than 64 µg/mL. In the test on S. aureus 929, the “MIC S. aureus 929” value is greater than 64 µg/mL. Besides, the “MIC S. coag. Neg. 845” value in the test with S. coag. Neg. 845 was greater than 64 µg/mL. Besides, the “MIC S. epidermis 60*” value with S. epidermis 60 is 2 µg/mL (≈ 1.87 µM). Further, the “MIC S. specie 916*” value in the test with S. specie 916 came out at 2 µg/mL (≈ 1.87 µM). For the same molecule, the “MIC S. haemolyticus 161” value in the test with S. haemolyticus 161 is greater than 64 µg/mL. For the same molecule, in test [1], the “PD50 1 hour after infection” value came to 22.9 µmol/kg and the “PD50 24 hours before infection” value is 15.5 µmol/kg.

For the molecule `CC[C@H]1OC(=O)[C@H](C)[C@@H](O[C@H]2C[C@@](C)(OC)[C@@H](O)[C@H](C)O2)[C@H](C)[C@@H](O[C@@H]2O[C@H](C)C[C@H](N(C)C)[C@H]2O)[C@](C)(O)C[C@@H](C)/C(=N\OCCN(C)CCCCCCNCc2nc(-c3nccs3)cs2)[C@H](C)[C@@H](O)[C@]1(C)O` [Compound 2], in the test with S. aureus 77, the “MIC S. aureus 77” value is greater than 64 µg/mL. Also, the “MIC S. aureus 929” value against S. aureus 929 was greater than 64 µg/mL. For the same molecule, the “MIC S. coag. Neg. 845” value in the test on S. coag. Neg. 845 is greater than 64 µg/mL. In addition, in the test with S. epidermis 60, the “MIC S. epidermis 60*” value is 2 µg/mL (≈ 1.84 µM). Besides, the “MIC S. specie 916*” value in the test with S. specie 916 worked out at 4 µg/mL (≈ 3.68 µM). The “MIC S. haemolyticus 161” value against S. haemolyticus 161 was greater than 64 µg/mL.

On to `CC[C@H]1OC(=O)[C@H](C)[C@@H](O[C@H]2C[C@@](C)(OC)[C@@H](O)[C@H](C)O2)[C@H](C)[C@@H](O[C@@H]2O[C@H](C)C[C@H](N(C)C)[C@H]2O)[C@](C)(O)C[C@@H](C)/C(=N\OCCNCCCCCCNCc2csc(-c3cccs3)n2)[C@H](C)[C@@H](O)[C@]1(C)O` [Compound 4, Erythromycin A (E)-9-[O-[2-[6-[(2-thiophen-2-ylthiazol-4-ylmethyl)amino]hexylamino]ethyl]oxime]], for which the “MIC S. aureus 77” value in the test with S. aureus 77 stood at 64 µg/mL (≈ 59.8 µM). The “MIC S. aureus 929” value against S. aureus 929 came out at 16 µg/mL (≈ 14.9 µM). Also, the “MIC S. coag. Neg. 845” value in the test with S. coag. Neg. 845 is 16 µg/mL (≈ 14.9 µM). Besides, the “MIC S. epidermis 60*” value with S. epidermis 60 was 0.5 µg/mL (≈ 0.467 µM). In the test on S. specie 916, the “MIC S. specie 916*” value turned out to be 8 µg/mL (≈ 7.47 µM). In the test with S. haemolyticus 161, the “MIC S. haemolyticus 161” value stood at 16 µg/mL (≈ 14.9 µM). Further, in test [1], the “PD50 1 hour after infection” value was 11.4 µmol/kg and the “PD50 24 hours before infection” value worked out at 14.3 µmol/kg.

Regarding `CC[C@H]1OC(=O)[C@H](C)[C@@H](O[C@H]2C[C@@](C)(OC)[C@@H](O)[C@H](C)O2)[C@H](C)[C@@H](O[C@@H]2O[C@H](C)C[C@H](N(C)C)[C@H]2O)[C@](C)(OC)C[C@@H](C)C(=O)[C@H](C)[C@@H](O)[C@]1(C)O` [Clarithromycin, reference compound], in [1], the “PD50 1 hour after infection” value was found to be 7.38 µmol/kg and the “PD50 24 hours before infection” value is greater than 85.6 µmol/kg.

Take `CC[C@H]1OC(=O)[C@H](C)[C@@H](O[C@H]2C[C@@](C)(OC)[C@@H](O)[C@H](C)O2)[C@H](C)[C@@H](O[C@@H]2O[C@H](C)C[C@H](N(C)C)[C@H]2O)[C@](C)(O)C[C@@H](C)/C(=N\OCCNCCCCCCNCc2csc(-n3cncn3)n2)[C@H](C)[C@@H](O)[C@]1(C)O` [Compound 8, Erythromycin A (E)-9-[O-[2-[6-[(2-[1,2,4]triazol-1-ylthiazol-4-ylmethyl)amino]hexylamino]ethyl]oxime]]: the “MIC S. aureus 77” value against S. aureus 77 was greater than 64 µg/mL. The “MIC S. aureus 929” value in the test with S. aureus 929 was greater than 64 µg/mL. Further, in the test with S. coag. Neg. 845, the “MIC S. coag. Neg. 845” value was greater than 64 µg/mL. For the same molecule, the “MIC S. epidermis 60*” value with S. epidermis 60 was determined as 2 µg/mL (≈ 1.9 µM). In addition, in the test on S. specie 916, the “MIC S. specie 916*” value worked out at 8 µg/mL (≈ 7.58 µM). The “MIC S. haemolyticus 161” value in the test on S. haemolyticus 161 is greater than 64 µg/mL. Moreover, in the test with S. pneumoniae 1035, the “MIC S. pneumoniae 1035” value was 4 µg/mL (≈ 3.79 µM). Also, the “MIC S. pneumoniae 1047” value against S. pneumoniae 1047 came out at 2 µg/mL (≈ 1.9 µM). In the test with S. pneumoniae 1051, the “MIC S. pneumoniae 1051” value is 1 µg/mL (≈ 0.948 µM).

“Erythromycin A (E)-9-[O-[2-[6-[(2-[1,2,3]thiadiazol-5-ylthiazol-4-ylmethyl]amino]hexylamino]ethyl]oxime] [Compound 3]”: the “MIC S. aureus 77” value with S. aureus 77 was greater than 64 µg/mL. Moreover, the “MIC S. aureus 929” value in the test on S. aureus 929 was 64 µg/mL. The “MIC S. coag. Neg. 845” value with S. coag. Neg. 845 is 64 µg/mL. In addition, the “MIC S. epidermis 60*” value in the test on S. epidermis 60 stood at 1 µg/mL. For the same molecule, in the test with S. specie 916, the “MIC S. specie 916*” value came to 0.5 µg/mL. Also, the “MIC S. haemolyticus 161” value against S. haemolyticus 161 amounted to 64 µg/mL. Further, in test [1], the “PD50 1 hour after infection” value turned out to be 4.5 µmol/kg and the “PD50 24 hours before infection” value was 25.4 µmol/kg.

On to `CC[C@H]1OC(=O)[C@H](C)[C@@H](O[C@H]2C[C@@](C)(OC)[C@@H](O)[C@H](C)O2)[C@H](C)[C@@H](O[C@@H]2O[C@H](C)C[C@H](N(C)C)[C@H]2O)[C@](C)(O)C[C@@H](C)/C(=N\OCCNCCCCCCNCc2csc(-n3ccnc3)n2)[C@H](C)[C@@H](O)[C@]1(C)O` [Compound 5, Erythromycin A (E)-9-[O-[2-[6-[(2-imidazol-1-ylthiazol-4-ylmethyl)amino]hexylamino]ethyl]oxime]], for which, in the test on S. aureus 77, the “MIC S. aureus 77” value is greater than 64 µg/mL. Besides, the “MIC S. aureus 929” value against S. aureus 929 was greater than 64 µg/mL. The “MIC S. coag. Neg. 845” value with S. coag. Neg. 845 was greater than 64 µg/mL. The “MIC S. epidermis 60*” value against S. epidermis 60 was 1 µg/mL (≈ 0.948 µM). The “MIC S. specie 916*” value in the test on S. specie 916 turned out to be 4 µg/mL (≈ 3.79 µM). In addition, the “MIC S. haemolyticus 161” value in the test with S. haemolyticus 161 was greater than 64 µg/mL. Further, the “MIC S. pneumoniae 1035” value in the test with S. pneumoniae 1035 was found to be 4 µg/mL (≈ 3.79 µM). In addition, the “MIC S. pneumoniae 1047” value in the test on S. pneumoniae 1047 turned out to be 4 µg/mL (≈ 3.79 µM). Further, the “MIC S. pneumoniae 1051” value in the test with S. pneumoniae 1051 stood at 2 µg/mL (≈ 1.9 µM).

For the molecule `CC[C@H]1OC(=O)[C@H](C)[C@@H](O[C@H]2C[C@@](C)(OC)[C@@H](O)[C@H](C)O2)[C@H](C)[C@@H](O[C@@H]2O[C@H](C)C[C@H](N(C)C)[C@H]2O)[C@](C)(O)C[C@@H](C)/C(=N\OCCNCCCCCCNCc2csc(-n3cccn3)n2)[C@H](C)[C@@H](O)[C@]1(C)O` [Compound 10, Erythromycin A (E)-9-[O-[2-[6-[(2-pyrazol-1-ylthiazol-4-ylmethyl)amino]hexylamino]ethyl]oxime]], in the test on S. aureus 77, the “MIC S. aureus 77” value was greater than 64 µg/mL. Moreover, the “MIC S. aureus 929” value against S. aureus 929 is 32 µg/mL (≈ 30.3 µM). The “MIC S. coag. Neg. 845” value against S. coag. Neg. 845 turned out to be 32 µg/mL (≈ 30.3 µM). Also, the “MIC S. epidermis 60*” value against S. epidermis 60 is 1 µg/mL (≈ 0.948 µM). The “MIC S. specie 916*” value against S. specie 916 worked out at 4 µg/mL (≈ 3.79 µM). The “MIC S. haemolyticus 161” value with S. haemolyticus 161 stood at 64 µg/mL (≈ 60.7 µM). Besides, the “MIC S. pneumoniae 1035” value against S. pneumoniae 1035 came to 1 µg/mL (≈ 0.948 µM). Also, in the test on S. pneumoniae 1047, the “MIC S. pneumoniae 1047” value turned out to be 0.5 µg/mL (≈ 0.474 µM). In addition, the “MIC S. pneumoniae 1051” value against S. pneumoniae 1051 amounted to 0.25 µg/mL (≈ 0.237 µM).
